ChEMBL document CHEMBL3414510 (J Med Chem, 2015)

Key:
Liver = experiment: Metabolic stability in CD1 mouse liver microsomes after 30 mins by LC/MS analysis; format: ADME; details: 0.5 h
[1] = Permeability across human Caco2 cells; format: ADME, cell-based; details: caco-2
Mus musculus = experiment: Clearance in Balb/C mouse at 5 mg/kg, iv and po relative to liver blood flow; format: ADME, organism-based; design: dose 5 mg/kg, route oral; details: in vivo

- Stability (Liver): Stable
- permeability [1]: permeable
- CL (Mus musculus): 50%
SMILES: Cn1cc(CCn2cnc(-c3cnn(C)c3)c2-c2ccc(C#N)cc2)cn1
